Results: patent US20240368106A1, “HYDROXY AND ALKOXY COUMARINS AS MODULATORS OF POLRMT” (Pretzel Therapeutics, Inc., priority 2021, published 2024)

Molecular target: POLRMT (Homo sapiens (Human), UniProt O00411)
Experiment: homogeneous TR-FRET assay of mitochondrial transcription (inhibition of POLRMT)
Format: biochemical
Conditions: 7.5 nM POLRMT, 15 nM TFB2M, 30 nM TFAM, 0.5 nM DNA template, 500 μM NTPs, 37° C., 60 minutes
Experimental: The inhibitory activity of the compounds of the present invention against POLRMT were determined by assays based on Bergbrede, T., et al., “An adaptable high-throughput technology enabling the identification of specific transcription modulators,” SLAC Discov., 22, 378-386 (2017).
The ability of some compounds of the present invention to inhibit POLRMT were determined in a homogeneous TR-FRET Assay using high-throughput screening in a 384-well plate format. This method is used to monitor the activity of mitochondrial transcription through measurement of its product, a 407 bp long RNA transcript. Detection of the product is facilitated by hybridization of two DNA-oligonucleotide probes to specific and adjacent sequences within the RNA product sequence. Upon annealing of the probes, two fluorophores are coupled directly to an acceptor nucleotide probe (ATT0647, 5′), or introduced via a coupled streptavidin with a biotinylated donor nucleotide probe (Europium cryptate) that is brought into sufficient proximity to serve as a fluorescence-donor-acceptor pair. Thus, a FRET signal at 665 nm is generated upon excitation at 340 nm.
Proteins used as transcription factors (POLRMT: NP_005026.3, TFAM: NP_003192.1, TFB2M: NP_071761.1) are diluted from their stocks to working concentrations of 1 μM, 20 μM and 4 μM respectively, in a dilution buffer containing 20 mM Tris-HCl (pH 8.0), 200 mM NaCl, 10% (v/v) glycerol, 1 mM Dithiothreitol (DTT), 0.5 mM EDTA.
DNA template is a pUC18 plasmid with the mitochondrial light strand promotor sequence (1-477) cloned between HindIII and BamHI sites. The DNA template is restriction linearized proximal to the promotor 3′-end (pUC-LSP). The reaction mixture (10 uL) containing 7.5 nM POLRMT, 15 nM of TFB2M, 30 nM of TFAM, 0.5 nM of DNA template and 500 μM nucleotide triphosphate mix (NTPs) in a reaction buffer (containing 10 mM Tris-HCl (pH 7.5), 10 mM MgCl2, 40 mM NaCl, 10 mM DTT, 0.005% (w/v) Tween-20, 160 units/ml Rnase inhibitor and 0.1 mg/mL BSA) are dispensed to compounds in microplates, using a Thermo Multidrop® dispenser, and incubated at 37° C. in a VWR INCU-Line incubator for 60 minutes after mixing. No nucleotide triphosphate mix is added to negative control samples. Microplates with compounds to be tested in the assay are prepared from 10 mM compound stocks in 100% DMSO, equal amounts of DMSO without any compound are added to positive control and negative control samples.
During the incubation, a mix of the detection reagents is prepared in a buffer such that the enzymatic reaction is terminated due to chelating of Mg-ions and increased ionic strength, containing 50 mM Tris-HCl (pH 7.5), 700 mM NaCl, 20 mM EDTA, and 0.010% (w/v) Tween-20. Europium-streptavidin is pre-incubated with a 200-fold molar excess of a random sequence oligonucleotide to block unspecific binding of oligo, for two hours at ambient temperature in the dark. Afterwards, the blocked Europium-streptavidin is kept on ice until use.
At the end of the enzymatic reaction time, 5 μL detection oligo mix in the detection buffer is added, and assay plates are mixed and kept at ambient temperature for one hour, protected from light. The concentration of the Acceptor nucleotide oligo (e.g., ATTO647N-5′-[…]-3′) and Donor nucleotide oligo (e.g., bio-5′-AACACATCTCT(-bio)GCCAAACCCCA-bio-3′) in each assay well is 1 nM, and 3 nM, respectively.
After incubation with oligo mix, 5 μL of pre-blocked Europium-streptavidin reagent is dispensed to each assay well, assay plates are again mixed and kept at ambient temperature for one hour, protected from light.
The generated signal is measured with BMG Pherastar microtiter plate reader with a TRF light unit, using excitation at 340 nm, an integration time of 200 μs, and a delay time of 100 μs, before detection at 620 nm and 665 nm. The ratio of donor- and acceptor-fluorescence is used as a measure of the generated transcript product (i.e. enzymatic activity).

POLRMT, sequence (O00411 42-1230): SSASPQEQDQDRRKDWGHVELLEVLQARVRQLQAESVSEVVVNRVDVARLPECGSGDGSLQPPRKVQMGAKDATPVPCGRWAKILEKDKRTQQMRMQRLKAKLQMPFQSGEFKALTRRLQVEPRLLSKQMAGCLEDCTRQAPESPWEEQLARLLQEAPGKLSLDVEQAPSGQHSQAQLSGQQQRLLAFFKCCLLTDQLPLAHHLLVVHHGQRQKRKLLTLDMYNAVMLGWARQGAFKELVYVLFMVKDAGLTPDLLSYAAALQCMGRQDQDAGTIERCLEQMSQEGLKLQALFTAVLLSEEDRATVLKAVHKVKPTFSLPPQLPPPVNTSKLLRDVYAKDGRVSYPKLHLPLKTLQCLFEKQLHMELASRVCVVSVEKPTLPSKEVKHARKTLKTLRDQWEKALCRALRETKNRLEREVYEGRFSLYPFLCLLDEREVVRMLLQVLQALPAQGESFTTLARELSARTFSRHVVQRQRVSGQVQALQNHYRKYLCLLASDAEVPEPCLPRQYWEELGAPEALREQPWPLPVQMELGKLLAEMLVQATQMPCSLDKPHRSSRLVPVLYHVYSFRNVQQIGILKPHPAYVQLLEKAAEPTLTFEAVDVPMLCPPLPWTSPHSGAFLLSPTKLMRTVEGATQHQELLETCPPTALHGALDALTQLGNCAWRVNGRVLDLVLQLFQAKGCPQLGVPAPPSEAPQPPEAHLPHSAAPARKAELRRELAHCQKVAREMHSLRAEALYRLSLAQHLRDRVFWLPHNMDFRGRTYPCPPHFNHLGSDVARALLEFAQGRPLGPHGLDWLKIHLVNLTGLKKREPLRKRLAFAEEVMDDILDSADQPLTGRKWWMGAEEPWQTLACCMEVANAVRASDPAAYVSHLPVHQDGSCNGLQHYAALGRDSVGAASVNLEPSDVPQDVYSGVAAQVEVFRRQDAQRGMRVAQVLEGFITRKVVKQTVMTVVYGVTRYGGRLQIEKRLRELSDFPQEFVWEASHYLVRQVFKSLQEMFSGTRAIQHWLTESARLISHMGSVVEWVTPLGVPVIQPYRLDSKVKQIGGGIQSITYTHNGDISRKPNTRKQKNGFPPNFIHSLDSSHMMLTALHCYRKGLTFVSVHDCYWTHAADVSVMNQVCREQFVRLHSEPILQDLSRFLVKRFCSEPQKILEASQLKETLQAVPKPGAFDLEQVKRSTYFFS

SMILES	IC50 [µM]
COCC(Oc1ccc2c(-c3ccc(F)cc3Cl)cc(=O)oc2c1)C(=O)OC (stereo not drawn) [Example 14, methyl 2-((4-(2-chloro-4-fluorophenyl)-2-oxo-2H-chromen-7-yl)oxy)-3-methoxypropanoate]	0.2
O=C([C@@H](CO)Oc1ccc2c(-c3ccc(F)cc3Cl)cc(=O)oc2c1)N1CCCCC1 [Example 15, (R)-4-(2-chloro-4-fluorophenyl)-7-((3-hydroxy-1-oxo-1-(piperidin-1-yl)propan-2-yl)oxy)-2H-chromen-2-one]	0.4
Cc1cc(O)cc2oc(=O)cc(-c3ccc(F)cc3)c12 [Example 16, 4-(4-fluorophenyl)-7-hydroxy-5-methyl-2H-chromen-2-one]	> 100
Cc1cc(O[C@H](C)C(=O)N2CCCCC2)cc2oc(=O)cc(-c3ccc(F)cc3)c12 [Example 19, 4-(4-fluorophenyl)-5-methyl-7-[(1R)-1-methyl-2-oxo-2-(1-piperidyl)ethoxy]chromen-2-one]	0.5
Cc1cc(O[C@H](C)C(=O)N(C)C)cc2oc(=O)cc(-c3ccc(F)cc3)c12 [Example 20, (R)-2-((4-(4-fluorophenyl)-5-methyl-2-oxo-2H-chromen-7-yl)oxy)-N,N-dimethylpropanamide]	2
COc1ccc2c(-c3ccc(F)cc3Cl)cc(=O)oc2c1 [Example 21, 4-(2-chloro-4-fluorophenyl)-7-methoxy-2H-chromen-2-one]	4
Cc1cc(O)cc2oc(=O)cc(-c3ccccc3)c12 [Example 22, 7-hydroxy-5-methyl-4-phenyl-2H-chromen-2-one]	34
Cc1cc(OC(C)C)cc2oc(=O)cc(-c3ccccc3)c12 [Example 23, 7-isopropoxy-5-methyl-4-phenyl-2H-chromen-2-one]	87
Cc1cc(OCC(C)C)cc2oc(=O)cc(-c3ccccc3)c12 [Example 24, 7-isobutoxy-5-methyl-4-phenyl-2H-chromen-2-one]	93
Cc1ccccc1-c1cc(=O)oc2cc(OC3CCOCC3)ccc12 [Example 28, 7-((tetrahydro-2H-pyran-4-yl)oxy)-4-(o-tolyl)-2H-chromen-2-one]	0.5
Cc1ccccc1-c1cc(=O)oc2cc(OCC3CCOCC3)ccc12 [Example 29, 7-((tetrahydro-2H-pyran-4-yl)methoxy)-4-(o-tolyl)-2H-chromen-2-one]	1
CCCOc1ccc2c(-c3ccccc3C(F)(F)F)cc(=O)oc2c1 [Example 30, 7-propoxy-4-(2-(trifluoromethyl)phenyl)-2H-chromen-2-one]	1
CCCOc1ccc2c(-c3ccc(F)cc3Cl)cc(=O)oc2c1 [Example 31, 4-(2-chloro-4-fluorophenyl)-7-propoxy-2H-chromen-2-one]	0.2
CCCOc1ccc2c(-c3cnccc3C(F)(F)F)cc(=O)oc2c1 [Example 32, 7-propoxy-4-(4-(trifluoromethyl)pyridin-3-yl)-2H-chromen-2-one]	23
CCCOc1ccc2c(-c3cscc3C)cc(=O)oc2c1 [Example 33, 4-(4-methylthiophen-3-yl)-7-propoxy-2H-chromen-2-one]	0.2
CCCOc1ccc2c(-c3ccc(O)cc3C)cc(=O)oc2c1 [Example 34, 4-(4-hydroxy-2-methylphenyl)-7-propoxy-2H-chromen-2-one]	4
CCCOc1ccc2c(-c3ccccc3OC)cc(=O)oc2c1 [Example 35, 4-(2-methoxyphenyl)-7-propoxy-2H-chromen-2-one]	6
CCCOc1ccc2c(-c3cccc4c3OCCO4)cc(=O)oc2c1 [Example 36, 4-(2,3-dihydrobenzo[b][1,4]dioxin-5-yl)-7-propoxy-2H-chromen-2-one]	50

SMILES	IC50 [µM]
Cc1ccccc1-c1cc(=O)oc2cc(O)cc(C)c12 [Example 37, 7-hydroxy-5-methyl-4-(o-tolyl)-2H-chromen-2-one]	2
COc1ccccc1-c1cc(=O)oc2cc(O)ccc12 [Example 50, 7-hydroxy-4-(2-methoxyphenyl)-2H-chromen-2-one]	10
CCCOc1ccc2c(-c3csc(C)c3C)cc(=O)oc2c1 [Example 51, 4-(4,5-dimethylthiophen-3-yl)-7-propoxy-2H-chromen-2-one]	0.4
CCCOc1ccc2c(-c3c(C)noc3C)cc(=O)oc2c1 [Example 52, 4-(3,5-dimethylisoxazol-4-yl)-7-propoxy-2H-chromen-2-one]	17
CCCOc1ccc2c(-c3cccnc3C)cc(=O)oc2c1 [Example 53, 4-(2-methylpyridin-3-yl)-7-propoxy-2H-chromen-2-one]	0.8
CCCOc1ccc2c(-c3ccncc3C)cc(=O)oc2c1 [Example 54, 4-(3-methylpyridin-4-yl)-7-propoxy-2H-chromen-2-one]	3
CCCOc1ccc2c(-c3cnc(Cl)cc3C)cc(=O)oc2c1 [Example 55, 4-(6-chloro-4-methylpyridin-3-yl)-7-propoxy-2H-chromen-2-one]	5
CC(=O)N1CCC(Oc2ccc3c(-c4ccc(F)cc4Cl)cc(=O)oc3c2)CC1 [Example 56, 7-((1-acetylpiperidin-4-yl)oxy)-4-(2-chloro-4-fluorophenyl)-2H-chromen-2-one]	8
CC(=O)N1CCCC(Oc2ccc3c(-c4ccc(F)cc4Cl)cc(=O)oc3c2)C1 (stereo not drawn) [Example 57, 7-((1-acetylpiperidin-3-yl)oxy)-4-(2-chloro-4-fluorophenyl)-2H-chromen-2-one]	4
Cc1ccccc1-c1cc(=O)oc2cc(OC(C)C)cc(C)c12 [Example 58, 7-isopropoxy-5-methyl-4-(o-tolyl)-2H-chromen-2-one]	0.4
CC(=O)N1CC[C@H](Oc2ccc3c(-c4ccccc4C)cc(=O)oc3c2)C1 [Example 61, (S)-7-((1-acetylpyrrolidin-3-yl)oxy)-4-(o-tolyl)-2H-chromen-2-one]	28
CC(=O)N1CC[C@@H](Oc2ccc3c(-c4ccccc4C)cc(=O)oc3c2)C1 [Example 62, (R)-7-((1-acetylpyrrolidin-3-yl)oxy)-4-(o-tolyl)-2H-chromen-2-one]	19
Cc1ccccc1-c1cc(=O)oc2cc(O[C@H]3CCN(C)C3)ccc12 [Example 63, (S)-7-((1-methylpyrrolidin-3-yl)oxy)-4-(o-tolyl)-2H-chromen-2-one]	90
CCCOc1ccc2c(-c3ncccc3C)cc(=O)oc2c1 [Example 64, 4-(3-methylpyridin-2-yl)-7-propoxy-2H-chromen-2-one]	54
COCC(Oc1ccc2c(-c3ccccc3C)cc(=O)oc2c1)C(=O)O (stereo not drawn) [Example 65, 3-methoxy-2-((2-oxo-4-(o-tolyl)-2H-chromen-7-yl)oxy)propanoic acid]	0.8
Cc1ccccc1-c1cc(=O)oc2cc(O[C@@H]3CCN(C)C3)ccc12 [Example 66, (R)-7-((1-methylpyrrolidin-3-yl)oxy)-4-(o-tolyl)-2H-chromen-2-one]	42
COC[C@H](Oc1ccc2c(-c3ccccc3C)cc(=O)oc2c1)C(N)=O [Example 67, (S)-3-methoxy-2-((2-oxo-4-(o-tolyl)-2H-chromen-7-yl)oxy)propenamide]	16
COC[C@@H](Oc1ccc2c(-c3ccccc3C)cc(=O)oc2c1)C(N)=O [Example 68, (R)-3-methoxy-2-((2-oxo-4-(o-tolyl)-2H-chromen-7-yl)oxy)propenamide]	0.7
